Test results published in patent US10611757B2, “Crystalline form of chemical compound, and preparation method, composition, and application thereof” (WUHAN LL SCIENCE AND TECHNOLOGY DEVELOPMENT CO., LTD., priority 2016, dated 2020).
“Also recorded” adds a separate entry of the source.

Assays:
[1] = system: spontaneously hypertensive rats; assay: Antihypertensive efficacy test in spontaneously hypertensive rats (systolic blood pressure and heart rate by implanted sensor); assay type: in vivo, rat; conditions: SHR, 1 mg/kg; for Systolic blood pressure change / Heart rate change: average ± standard error; for Heart rate change: oral
Procedure: 12-week-old spontaneously hypertensive rats (hereinafter referred to as SHR, purchased from Beijing Weitong Lihua Experimental Animal Technology Co., Ltd.) were anesthetized with 2.5% sodium pentobarbital for intraperitoneal injection. After that, the blood pressure sensing catheter of hypertension implant was inserted into their abdominal aorta, while the implant was fixed to the abdominal wall, and then postoperative daily care was performed after suturing.
Rats with systolic blood pressure exceeding 160 mm Hg were divided into 3 groups (control group, compound (A) group and compound (B) group), wherein each group has 8 rats. The control group was administrated 0.5% sodium carboxymethyl cellulose (hereinafter referred to as CMC-Na); the compound (B) group and the compound (A) group were respectively administered the compound (B) and the compound (A), both of which were dissolved by 0.5% CMC-Na, by intragastric administration, at a dose of 1 mg/kg (calculated by the effective dose of valsartan) and a volume calculated by 4 mL/kg.
The systolic blood pressure and heart rate of SHR were compared before and after administration (the systolic blood pressure and heart rate of SHR before administration as reference value), which were detected three times at each time point with the average value recorded.

[2] = Comparative stability test (total impurity content, 25° C., 60% relative humidity); assay type: physicochemical; conditions: for total impurity content: packed; for chemical stability relative to the amorphous form: total impurity content
Procedure: The stability of an amorphous form, the crystalline form I, a mixture of the crystalline form I and the crystal II, the crystal II, and the crystalline form III of the compound (A) was investigated. Specifically, the amorphous form, the crystalline form I, the mixture of the crystalline form I and the crystalline form II (weight ratio 1:2), the crystalline form II and the crystalline form III were taken 200 mg respectively to be investigated as follows:
Packing: Polyvinyl chloride (PVC) ziplock bag (the inner layer) was vacuumized, aluminum foil (the middle layer) was vacuumized, and aluminum foil desiccant (the outer layer) was vacuum and filled in with nitrogen;
Inspection conditions: 25° C., 60% relative humidity. The indicator was the total impurity content, which is determined by detection of samples three times at each time point with the average value recorded. The time points for sampling include 0, 1, 2, 3 and 6 months after packing.

[3] = Comparative stability of crystalline form III and IV on drying overnight at room temperature (XRD); assay type: physicochemical
Excerpt: The crystalline form III and the crystalline form IV samples were respectively dried overnight at room temperature.

[4] = Competition test between crystalline forms at room temperature (ethyl acetate suspension, XRD); assay type: physicochemical; conditions: for stability under room temperature relative to the competing form: competition in ethyl acetate suspension
Procedure: Equivalent amounts of crystalline form I and crystalline form II samples were mixed well, added with 0.8 ml ethyl acetate to form a suspension, stirred overnight and detected by XRD.
Equivalent amounts of crystalline form II and form III samples were mixed well, added with 0.2 ml ethyl acetate to form a suspension, which was stirred overnight to obtain a crystalline form II determined by XRD detection.
Equivalent amounts of crystalline form I and form III samples were mixed uniformly, added with 0.2 ml ethyl acetate to form a suspension, which was stirred overnight, to obtain a crystalline form I determined by XRD detection.

[5] = Influences of high temperature and high humidity on the crystalline form II (XRD); assay type: physicochemical; conditions: 10 days
Procedure: Two samples of 20 mg the crystalline form II were respectively placed at 60° C. (sealed and shielded from light) and 85% relative humidity (exposed in the air at room temperature and shielded from light), detected by XRD after 10 days and compared with XRD of the crude sample.

[6] = Effects of tabletting processes on the crystalline form II (XRD); assay type: physicochemical; conditions: tableted under 20 kg and 25 kg pressure
Procedure: Tabletting method: 50 mg of the crystalline form II was tableted under 20 kg and 25 kg pressure by a single punching machine.
The XRD of the obtained sample powder was compared with the XRD of the crude sample, the results are shown in FIG. 8 (from top to bottom: the crude sample, the sample after 25 kg pressure tabletting and the sample after 20 kg pressure tabletting).

[7] = intragastric, 1 hour after administration
[8] = intragastric, 3 hours after administration
[9] = intragastric, 5 hours after administration
[10] = intragastric, 7 hours after administration
[11] = intragastric, 10 hours after administration
[12] = intragastric, 24 hours after administration
[13] = intragastric, before administration (reference value)
[14] = before administration (reference value)

CCOc1nc2cccc(C(=O)OC(C)OC(=O)OCc3nc(C)c(C)nc3C)c2n1Cc1ccc(-c2ccccc2-c2noc(=O)[n-]2)cc1.[K+] (stereo not shown) [Compound (A)]
effect of lowering heart rate compared with the compound (B) group [1]: more potent with longer-lasting effect of lowering heart rate | antihypertensive effect compared with the compound (B) group ([1]; intragastric): more potent with longer-lasting antihypertensive effect | Systolic blood pressure change [1, 7]: −7.0 ± 3.4 mmHg | Systolic blood pressure change [1, 8]: −34.3 ± 1.9 mmHg | Systolic blood pressure change [1, 9]: −46.5 ± 2.5 mmHg | Systolic blood pressure change [1, 10]: −49.4 ± 4.1 mmHg | Systolic blood pressure change [1, 11]: −45.3 ± 3.3 mmHg | Systolic blood pressure change [1, 12]: −25.9 ± 3.4 mmHg | Systolic blood pressure change [1, 13]: 0.0 ± 0.0 mmHg | Heart rate change ([1]; 1 hour after administration): −3.6 ± 2.4 times/minute | Heart rate change ([1]; 3 hours after administration): −5.0 ± 2.5 times/minute | Heart rate change ([1]; 5 hours after administration): −10.1 ± 3.0 times/minute | Heart rate change ([1]; 7 hours after administration): −17.5 ± 3.0 times/minute | Heart rate change ([1]; 10 hours after administration): −25.4 ± 2.4 times/minute | Heart rate change ([1]; 24 hours after administration): −28.6 ± 8 times/minute | Heart rate change [1, 14]: 0.0 ± 0.0 times/minute

CCOc1nc2cccc(C(=O)OC(C)OC(=O)OCc3nc(C)c(C)nc3C)c2n1Cc1ccc(-c2ccccc2-c2noc(=O)[nH]2)cc1 (stereo not shown) [Compound (B), reference compound]
Systolic blood pressure change [1, 7]: −4.9 ± 4.8 mmHg | Systolic blood pressure change [1, 8]: −22.0 ± 3.6 mmHg | Systolic blood pressure change [1, 9]: −30.5 ± 3.5 mmHg | Systolic blood pressure change [1, 10]: −38.8 ± 2.3 mmHg | Systolic blood pressure change [1, 11]: −33.0 ± 1.7 mmHg | Systolic blood pressure change [1, 12]: −10.2 ± 2.1 mmHg | Systolic blood pressure change [1, 13]: 0.0 ± 0.0 mmHg | Heart rate change ([1]; 1 hour after administration): −3.4 ± 2.6 times/minute | Heart rate change ([1]; 3 hours after administration): −2.33 ± 2.6 times/minute | Heart rate change ([1]; 5 hours after administration): −6.5 ± 2.8 times/minute | Heart rate change ([1]; 7 hours after administration): −6.2 ± 3.0 times/minute | Heart rate change ([1]; 10 hours after administration): −12.3 ± 2.8 times/minute | Heart rate change ([1]; 24 hours after administration): −6.7 ± 2.6 times/minute | Heart rate change [1, 14]: 0.0 ± 0.0 times/minute

CCOc1nc2cccc(C(=O)OC(C)OC(=O)OCc3nc(C)c(C)nc3C)c2n1Cc1ccc(-c2ccccc2-c2noc(=O)[n-]2)cc1.[K+] (stereo not shown) [crystalline form III]
total impurity content ([2]; 0 months): 1.56% | total impurity content ([2]; 1 month): 2.55% | total impurity content ([2]; 2 months): 2.98% | total impurity content ([2]; 3 months): 3.34% | total impurity content ([2]; 6 months): 3.76% | chemical stability relative to the amorphous form [2]: better than the amorphous form | share converted to the crystalline form I ([3]; dried overnight at room temperature, XRD): no more than 30% | stability at room temperature relative to crystalline form IV [3]: superior to that of the crystalline form IV | transformation of crystalline form in competition with form I ([4]; equivalent amounts of form I and form III, ethyl acetate suspension, stirred overnight, XRD): completely transformed into the crystalline form I | transformation of crystalline form in competition with form II ([4]; equivalent amounts of form II and form III, ethyl acetate suspension, stirred overnight, XRD): completely transformed into the crystalline form II

CCOc1nc2cccc(C(=O)OC(C)OC(=O)OCc3nc(C)c(C)nc3C)c2n1Cc1ccc(-c2ccccc2-c2noc(=O)[n-]2)cc1.[K+] (stereo not shown) [crystalline form II]
total impurity content ([2]; 0 months): 1.29% | total impurity content ([2]; 1 month): 1.43% | total impurity content ([2]; 2 months): 1.59% | total impurity content ([2]; 3 months): 1.82% | total impurity content ([2]; 6 months): 1.87% | chemical stability relative to the amorphous form [2]: better than the amorphous form | crystalline form after high temperature ([5]; 60° C., sealed and shielded from light): remains unchanged | crystalline form after high humidity ([5]; 85% relative humidity, room temperature, shielded from light): remains unchanged | stability at room temperature relative to crystalline form IV [3]: superior to that of the crystalline form IV | crystalline form after tabletting [6]: remains unchanged | stability under room temperature relative to the competing form [4]: better than that of form I; also recorded: better than that of form III

CCOc1nc2cccc(C(=O)OC(C)OC(=O)OCc3nc(C)c(C)nc3C)c2n1Cc1ccc(-c2ccccc2-c2noc(=O)[n-]2)cc1.[K+] (stereo not shown) [crystalline form IV]
transformation of crystalline form on drying ([3]; dried at room temperature, XRD): converted to crystalline form I; also recorded: completely transformed into the crystalline form I

CCOc1nc2cccc(C(=O)OC(C)OC(=O)OCc3nc(C)c(C)nc3C)c2n1Cc1ccc(-c2ccccc2-c2noc(=O)[n-]2)cc1.[K+] (stereo not shown) [crystalline form I]
total impurity content ([2]; 0 months): 1.11% | total impurity content ([2]; 1 month): 1.62% | total impurity content ([2]; 2 months): 2.34% | total impurity content ([2]; 3 months): 2.49% | total impurity content ([2]; 6 months): 3.10% | chemical stability relative to the amorphous form [2]: better than the amorphous form | stability at room temperature relative to crystalline form IV [3]: superior to that of the crystalline form IV | stability under room temperature relative to the competing form [4]: better than that of the crystalline form III | content of crystalline form I in the obtained product ([4]; equivalent amounts of form I and form II, ethyl acetate suspension, stirred overnight, XRD): about 5%

CCOc1nc2cccc(C(=O)OC(C)OC(=O)OCc3nc(C)c(C)nc3C)c2n1Cc1ccc(-c2ccccc2-c2noc(=O)[n-]2)cc1.[K+] (stereo not shown) [mixture of crystalline form I and II]
total impurity content ([2]; 0 months): 0.90% | total impurity content ([2]; 1 month): 1.58% | total impurity content ([2]; 2 months): 2.20% | total impurity content ([2]; 3 months): 2.40% | total impurity content ([2]; 6 months): 3.29% | chemical stability relative to the amorphous form [2]: better than the amorphous form
